According to patent US6989270B1, “Using polyamide nucleic acid oligomers to engender a biological response” (Mayo Foundation for Medical Education and Research, priority 1997, dated 2006):

Legend:
mu-1 receptor (MU1R) = test: Tail flick test of MOR-mediated anti-nociception in PNA-treated rats; format: in vivo, rat
Procedure: The injection of MOR into rats produces a potent anti-nociceptive response. This response is mediated by specific MOR receptors and is inhibited by naloxone. A very sensitive and reliable tail flick test was devised and used to measure the anti-nociceptive effects of MOR (D'Amour F. E. and Smith D. L, J. Pharm. Exp. Therap. 72:74-79 (1941)).
MU1R-PNA, NTR1-PNA, and ACSF treated as well as untreated rats were analyzed using the MOR-specific tail flick test. One day after the last treatment, each rat was analyzed as follows. Thirty minutes prior to testing, a pre-drug latency measurement was made by placing the tail of the restrained rat in oil maintained at a temperature of 60° C. and recording the time elapsed before the rat flicked its tail. After making this measurement, an appropriate dose of MOR (5 mg/kg of body weight) at a volume of about 200 μl was injected i.p. Thirty minutes after administering MOR, the restrained rat's tail was again placed in the oil maintained at 60° C. and the latency between the time the tail was placed in the oil and the time the rat flicked its tail was measured. […] Tail flick tests were scored as the percent of MPE and calculated using the following equation: % MPE=[(post-drug latency−pre-drug latency)/(cut-off−pre-drug latency)]×100; where the cut-off is 12 seconds. […] This average for untreated control rats was used to set the baseline A MPE value to 100. All test situations were compared to this baseline response value derived from MOR responsive untreated controls. To test the significance, data were analyzed using the Student's t-test with p<0.05 being considered significant.
AS-NTR1-PNA, mismatch-AS-NTR1-PNA, and MU1R-PNA were injected intraperitoneally (10 mg/kg) independently, into separate groups of male Sprague-Dawley rats (Harlan, Prattville, Ala.). The sense-NTR1-PNA oligomer, however, was microinjected directly into the periaqueductal gray (PAG; 5 μg), the major area in the brain involved with perception of pain (nociception). […] Thirty minutes after receiving NT, animals were scored for anti-nociception (hot plate at 52° C.) and hypothermia (rectal probe). Again, anti-nociception scores were calculated as percent of maximum possible effect (% MPE) with the following equation: % MPE=[(post-drug latency time minus pre-drug latency time)/(cut-off time minus pre-drug latency time)]×100; where the cut-off time (i.e., the time when the animal was removed from the device) was 30 seconds for a hot plate test and 12 seconds for a tail flick test. Statistical analysis was done using the rank sum test.

NTR1 mRNA = test: Quantitative RT-PCR of NTR1 mRNA relative to GAPDH; format: in vivo; conditions: treated intracranially, 5 μg
Procedure: Messenger RNA (mRNA) levels for NTR1, MU1R, and GAPDH were measured in control and PNA-treated animals. Briefly, total RNA was isolated from approximately 20 mg of tissue using the S.N.A.P. total RNA Isolation Kit (Invitrogen, Carlsbad, Calif.). Quantitative RT-PCR was performed on treated and control animals using GAPDH as an internal standard and PCR fragments of the human NTR and of a GAPDH deletion mutant as exogenous standards. First strand cDNA was synthesized from approximately 500 ng of total RNA using the cDNA Cycle Kit (Invitrogen, Carlsbad, Calif.). PCR was performed on a GeneAmp PCR System 9600 (Perkin Elmer, Norwalk, Conn.) using end-labeled primer and TAq DNA Polymerase (Gibco-BRL, Gaithersburg, Md.). Products were separated on a 5% acrylamide gel containing 7 M urea, and detected using a Storm860 Phosphoimager (Molecular Dynamics, Sunnyvale, Calif.). Data were analyzed using ImageQuant Software (Molecular Dynamics, Sunnyvale Calif.). To control for any diurnal mRNA level fluctuations that may occur, the PNA injection time was controlled such that the tissue harvest time was identical in each animal group.

## NTR1-PNA: 12-mer antisense PNA oligomer to rat NTR1 coding region, 5′-CATTGCTCAAAC-3′ (SEQ ID NO: 1) (all peptide nucleic acid (PNA))
mu-1 receptor (MU1R); 10 mg/kg i.p. treated animals lacking NT anti-nociception, MOR 5 mg/kg i.p.
  anti-nociception score (tail flick) after MOR: 95 % MPE
mu-1 receptor (MU1R); PNA injected into PAG on days -4, -2, 0, MOR 5 mg/kg i.p.
  MPE (tail flick) response to MOR challenge as percent of baseline response: indistinguishable from baseline responses
mu-1 receptor (MU1R); intraperitoneal administration, Table VI
  Responsiveness: Morphine (anti-nociception): normal
NTR1 mRNA
  change in NTR1/GAPDH ratio of mRNA over time: no significant change
